Laboratory results as given in patent US12703693B2, “Crystalline forms of N-{3-[(1S)-1-{[6-(3,4-dimethoxyphenyl)pyrazin-2-yl]amino}ethyl]phenyl}-5-methylpyridine-3-carboxamide and related products and methods” (GB002, INC., priority 2021, dated 2026).
In brackets after ≈: the same amount, converted by molar mass.

Experiments:
[1] = Particle size distribution (PSD) of micronized / spray dried material; type: physicochemical; conditions: Example 9 wet milling, 5% w/w in water, 45 cycles/P = 50 bar
Description: Crystalline Compound 1 Form A was fed into a grinding chamber tangentially by vacuum created by the venturi system using pressurized nitrogen (venturi pressure, Pvent, above grind pressure, Pgrind). Compressed nitrogen was also used for the jet nozzles in the walls of the chamber. The feed flow rate was set and controlled automatically (by a gravimetric feeder) or manually. Once inside the milling chamber particles were accelerated by a series of perimeter jets, in a spiral movement. The compressed fluid issuing from the nozzles expands from Pgrind and imparts very high rotational speeds in the chamber. The micronizing effect occurs when the slower incoming particles and the faster particles in the spiral path collide. While centrifugal force retains the larger particles at the periphery of the milling chamber, the smaller particles exit with the exhaust gas from the center of the chamber. Five 20 g trials were performed in a 1.5″ jet mill, under varying feed rates (Ffeed,JM,) and pressures; the optimal conditions were used for a sixth larger scale 50 g trial.
Aqueous suspensions of crystalline Compound 1 Form A in water (5% w/w or 10% w/w) were processed via microfluidization with a HPH18 (M-110EH-30 Microfluidics Pilot) wet milling apparatus equipped with an auxiliary processing module (200 μm) and an interaction chamber (Z-shape, 100 μm). The unit was initiated at a given pressure for the first five cycles to perform a pre-milling of the suspension, using only the auxiliary processing module (200 μm). The interaction chamber (100 μm) was then introduced and the suspension processed at a defined pressure. The temperature was controlled, using a reactor jacket, and recorded. To address clogging of the micronization chambers (observed after ~25 cycles), the pressure was increased from 25 to 60 bar.
The material isolated from the first run 1A, was dived into three (1BI, 1BII and 1BIII); runs 2A and 3A were spray dried to produce samples 2B and 3B, respectively. […] Runs 2B and 3B were additionally characterized for specific surface area (SSA). See Table 27 (runs 1BI, 1BII and 1BIII) and Table 28 (runs 2B and 3B) for conditions and product characterization. […]
Two 250 g batches of crystalline Compound 1 Form A were each suspended in water (5 L) and wet polished in a wet milling HPH18 (M-110EH-30 Microfluidics Pilot) apparatus, equipped with an auxiliary processing module (200 μm) and an interaction chamber (Z-shape, 100 μm). The unit was initiated at 50 bar for the first five cycles to perform a pre-milling of the suspension, using only the auxiliary processing module (200 μm). The interaction chamber (100 μm) was then introduced and the suspension processed at 50 bar (increased to 60 or 70 bar if the system clogged). The temperature was maintained at 18-28° C. using a reactor jacket. The Reactor agitation speed was 280 RPM (batch 1) and 390 RPM (batch 2). The first batch was micronized for 25 cycles and particle size distribution analyzed after 5, 15 and 20 cycles; the second batch was micronized for […] and particle size distribution analyzed after 15, 20, 25 and 35 cycles.
Both batches were then spray dried (separately) using a Büchi spray dryer, using an open loop system. The unit was equipped with a two-fluid nozzle: cap and orifice diameters of 1.5 and 0.7 mm, respectively operated with nitrogen. The aspirator, blowing nitrogen, was set at 100% capacity (~40 kg/h). The suspension feed flow was set to 8 ml/min, high and the drying outlet temperature to 75±1° C. […] Total yield (both batches combined) was 267 g (53%).
Two 250 g batches (250 g and 238 g; 488 g total) of crystalline Compound 1 Form A coated with ~2% L-leucine were each suspended in water (5 L) and wet polished in a wet milling HPH18 (M-110EH-30 Microfluidics Pilot) apparatus, under the same process as described in the previous example. The first batch was micronized for 25 cycles and the second for 30 cycles. […]

[2] = Sample stress, 40° C. and 75% relative humidity, XRPD; type: physicochemical; conditions: open vial, 6 days
Method: Two samples, one containing pure crystalline Form A of Compound 1 and a second containing a mixture of crystalline Forms A and B of Compound 1 were placed in an open vial at 40° C. and 75% relative humidity for 6 days and then analyzed by XRPD. The results are presented in Table 11; no changes by XRPD were observed.

[3] = Physical stability, 1 week storage (HPLC purity, XRPD); type: physicochemical
Method: Two vials each were then stored for 1 week under various conditions of temperature and relative humidity.
XRPD analysis was performed to detect changes in crystallinity.

[4] = Solubility in 25 mM phosphate buffer pH 7.4; conditions: phosphate buffer, pH 7.4
Method: (§1) Phosphate Buffer contained NaH2PO4·H2O (0.345 g), sodium hydroxide aqueous solution (0.2M, 10.001 mL), sodium chloride (0.576 g) and water (qs ad 100.0 mL); • Ethanol/Water (30/70) contained Ethanol (30.0 g) and Water (70.0 g); • Ethanol/Water (40/60) contained Ethanol (40.0 g) and Water (60.0 g); • Ethanol/Water (50/50) contained Ethanol (50.0 g) and Water (50.0 g); and • Ethanol/Water (45/55) contained Ethanol (4.50 g) and Water (5.51 g).

[5] = Thermodynamic solubility in pH 3, 4.5, 6.8 buffers and deionized water; conditions: for pH (24 h): ~24 h agitation at ambient temperature
[6] = Gravimetric Vapor Sorption (GVS); type: physicochemical; conditions: 25° C.
Method: Approximately 10-20 mg of crystalline Form A of Compound 1 was placed into a mesh vapor sorption balance pan and loaded into an IGASorp Moisture Sorption Analyzer balance by Hiden Analytical. The sample was subjected to a ramping profile from 40-90% relative humidity (RH) at 10% increments, maintaining the sample at each step until a stable weight had been achieved (98% step completion, minimum step length 30 minutes, maximum step length 60 minutes) at 25° C. After completion of the sorption cycle, the sample was dried using the same procedure to 0% RH, and finally taken back to the starting point of 40% RH. Two cycles were performed. The weight change during the sorption/desorption cycles were plotted, allowing for the hygroscopic nature of the sample to be determined.

physchem = conditions: 22 °C, aqueous with cosolvent or surfactant or cyclodextrin, thermodynamic from solid
Method: as §1

[7] = Solubility in ethyl acetate and ethyl acetate+2% water (Crystal16 parallel crystallizer); type: physicochemical; conditions: presence of water (2%)
Method: The solubility of crystalline Forms A and B of Compound 1 in ethyl acetate was determined using a Crystal16® parallel crystallizer. Two heating rates were used, 1° C./min and 0.5° C./min. The suspensions were heated to 78° C. and cooled to 10° C. at 0.2° C./min and maintained for 2 h at 10° C. […] The suspensions were heated to 78° C. at 1° C./min, cooled to 10° C. at 0.2° C./min and maintained for 2 h at 10° C. FIG. 15 compares the resulting solubility curve with the pure ethyl acetate.

COc1ccc(-c2cncc(N[C@@H](C)c3cccc(NC(=O)c4cncc(C)c4)c3)n2)cc1OC [Form A, N-{3-[(1S)-1-{[6-(3,4-dimethoxyphenyl)pyrazin-2-yl]amino}ethyl]phenyl}-5-methylpyridine-3-carboxamide]
Dv10 [1]: 0.1 μm | Dv50 [1]: 1.0 μm | Dv90 [1]: 3.5 μm | XRPD observation after stress conditions [2]: No change - all Form A | Purity (HPLC) ([3]; 1 week, 25° C./60% relative humidity (open vial)): ~99.1% | Purity (HPLC) ([3]; 1 week, 40° C./75% relative humidity (open vial)): ~99.1% | Purity (HPLC) ([3]; 1 week, 80° C. (closed vial)): ~99.0% | Purity (HPLC) ([3]; 1 week, Ambient light/temperature (closed vial)): ~98.9% | Purity (HPLC) ([3]; Before storage): ~99.3% | crystalline form by XRPD after storage ([3]; one week, ambient, 25° C., 40° C., 80° C., relative humidity ambient, 60%, 75%): maintained | solubility in phosphate buffer [4]: moderate solubility | pH (Initial) ([5]; Water, after addition): 6.78 | pH (24 h) ([5]; Water): 6.73 | Compound 1 concentration in filtered mother liquors (HPLC) ([5]; all buffers (pH 3, 4.5, 6.8) and water, ambient temperature, ~24 h): < 0.05 mg/mL | pH (Initial) ([5]; pH 3 buffer, after buffer addition): 2.96 | pH (24 h) ([5]; pH 3 buffer): 2.94 | pH (Initial) ([5]; pH 4.5 buffer, after buffer addition): 4.55 | pH (24 h) ([5]; pH 4.5 buffer): 4.55 | pH (Initial) ([5]; pH 6.8 buffer, after buffer addition): 6.83 | pH (24 h) ([5]; pH 6.8 buffer): 6.79 | hygroscopic nature (GVS) ([6]; two sorption/desorption cycles): slightly hygroscopic | GVS mass increase ([6]; up to 90% relative humidity): ~0.7% | solubility (physchem): 2 to 350 mg/mL (≈ 4.26 to 745 mM) | solubility in ethyl acetate+2% water compared to pure ethyl acetate [7]: significantly more soluble
